Laboratory results published in patent US7915050B2, “Regulatory genes for plant differentiation and growth, and use of the same” (National University Corporation Nagoya University, priority 2005, dated 2011).

Legend:
[1] = target: T1, GID1 (Oryza sativa subsp. japonica, UniProt Q6L545); test: Saturation/Scatchard and association/dissociation analysis of GA binding to recombinant GID1; parameters: species or system rice; settings: Scatchard plot analysis
T1 construct: GST (tag of vector pGEX-4T) (N); made in house
Protocol: Panel a) depicts the saturability for the GA binding of GID1. […] Bar represents the standard deviation (n=3). Panel b) depicts the results of a Scatchard plot for the data of binding shown in a. The Kd value was calculated (correlation coefficient R^2=0.96) from t three independent experimental results. Panel c) depicts the ^3H-GA association/dissociation rate to GID1. […] Bar represents the standard deviation (n=3). […] Upper panel, none of three recombinant proteins of mutant GID1s (GID1-1, 1-2, and 1-3) corresponding to the three gid1 alleles interacted with GA4. […] Bar represents the standard deviation (n=3). Bottom panel, Coomassie brilliant blue stain of the recombinant proteins used in this experiment. Dot represents GID or tag proteins in the SDS-PAGE profile. In this experiment, almost equal amounts of proteins were used for each (80 pmol). Panel e) depicts the gross morphologies of a GID1-overexpressing plant (Actin1 promoter-GID1, right) and wild type plant (control, left) three months after seeding. Bar=50 cm. f) dose-dependent GA response in the elongation of the second leaf sheath of GID1overexpressing plant (closed triangle) and wild type (closed circle). Bar represents the standard deviation (n=5).
In the gibberellin-binding assay, [1,2,16,17-^3H4]16,17-dihydro-GA4 was used as a labeled GA4. In vitro GA-binding assays were carried out using previous methods with some modifications (Nakajima, M. et al., Biochem. Biophys. Res. Comm. 241, 782-786 (1997)). […] The eluate of the binding buffer (0.6 ml) was discarded, the subsequent eluate (0.2 ml) was collected, and the radioactivity was measured. The specific binding activity, reflecting the number of displaceable GA binding sites, was calculated by subtracting the amount of nonspecific binding from the amount of total binding. […]
Next, the kinetics of the binding of GID1 to GA was analyzed. To calculate the Kd value of GID1 to GA, the saturability of GA binding was measured using various concentrations of GA4 derivative (FIG. 4a). […]

[2] = target: T1, GID1; test: Competition of various GAs in the binding of the 3H-GA4 derivative to GID1 protein; parameters: species or system rice
Protocol: (§1) In the gibberellin-binding assay, [1,2,16,17-^3H4]16,17-dihydro-GA4 was used as a labeled GA4. In vitro GA-binding assays were carried out using previous methods with some modifications (Nakajima, M. et al., Biochem. Biophys. Res. Comm. 241, 782-786 (1997)). The purified recombinant GID1 protein (400 pmol) was dissolved in 300 μl of binding buffer [20 mM Tris-HCl (pH 7.6), 5 mM 2-mercaptoethanol, and 0.1 M NaCl], and incubated with 100 μl of ^3H4-16,17-dihydroGA4 (6 pmol) for two hours at 25° C., either in the absence of non-labeled GA4 (total binding) or in the presence of 833-fold excess non-labeled GA4 (total non-specific binding). Then, 0.1 ml of the reaction mixture was loaded onto a NAP-5 column (Amersham Biosciences, Piscataway, N.J.). The eluate of the binding buffer (0.6 ml) was discarded, the subsequent eluate (0.2 ml) was collected, and the radioactivity was measured. The specific binding activity, reflecting the number of displaceable GA binding sites, was calculated by subtracting the amount of nonspecific binding from the amount of total binding. The same as above can also be carried out for other GAs.
Thus, it was postulated that, like GID2, GID1 is involved in the degradation of SLR1, or that GID1 functions upstream of SLR1 in GA signaling. […] Based on this phenotypic characteristic of gid1, it was predicted that GID1 was involved in GA perception. To verify this possibility, the interactions between GID1 and radioisotope-labeled GA was directly examined using non-equilibrium gel filtration (Nakajima, M. et al., Biochem. Biophys. Res. Comm. 241, 782-786 (1997)). […] Next, ligand specificity of GID1 was tested by using competition between the tritiated GA4 derivative and various GAs. The concentration of each GA that is required for a 50% inhibition (IC50) of the binding of the tritiated GA4 derivative to GID1 is shown in Table 1. […] The IC50 value for each of these GAs was well consistent with their physiological activity.

[3] = target: T2, AtGID1c (Arabidopsis thaliana, UniProt Q940G6); test: Competitive ability of GA in AtGID1-GA binding (AtGID1c)
T2 construct: made in house; host or cells: E. coli
T2 sequence (Q940G6 1-344): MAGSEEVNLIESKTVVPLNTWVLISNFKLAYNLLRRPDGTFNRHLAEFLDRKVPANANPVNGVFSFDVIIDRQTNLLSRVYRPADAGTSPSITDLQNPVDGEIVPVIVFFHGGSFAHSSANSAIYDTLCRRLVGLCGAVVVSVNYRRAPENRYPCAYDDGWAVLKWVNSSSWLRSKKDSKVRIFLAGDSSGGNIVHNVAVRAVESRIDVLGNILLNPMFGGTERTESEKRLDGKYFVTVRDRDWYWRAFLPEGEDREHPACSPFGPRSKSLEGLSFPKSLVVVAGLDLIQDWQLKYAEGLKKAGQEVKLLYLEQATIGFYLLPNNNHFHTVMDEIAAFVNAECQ
Protocol: as §1
Specifically, the coding region of the AtGID1 gene was amplified by PCR using specific primers designed based on the full-length cDNA sequence of the AtGID1 gene and having appropriate restriction sites at each end. After confirmation by sequence analysis, each cDNA fragment was ligated into pET32a vector (Novagen/Merck Biosciences, Madison, Wis., USA) or pGEX-4T-2 vector (Amersham Biosciences, Piscataway, N.J., USA; currently, a part of GE Healthcare). The production of recombinant proteins was confirmed by SDS-PAGE; vector cassettes were used as negative controls. GA binding assays were carried out similarly as described above using [1,2,16,17-^3H4]-16,17-dihydro-GA4 (4.55 TBq/mmol), which was custom-made by DuPont/NEN (Boston, Mass., USA). Non-labeled GA4 (1.25 mM) was used to measure non-specific binding. Saturation experiments for the kinetic analysis were carried out using ten concentrations of 16,17-dihydro-GA4 within the range of 25 to 1,500 nM. Competition assays were performed using [1,2,16,17-^3H4]-16,17-dihydro-GA4 at 15 nM and five concentrations of the non-labeled competitor. Recombinant RGA and GAI proteins were prepared using pET32a by a previously described method.
The ligand selectivity of each AtGID1 was examined by observing the competitive inhibition, by the addition of GA to the assay mixtures, of the binding between the recombinant proteins and tritiated 16,17-dihydro-GA4 (Table 2). The ligand selectivity was evaluated using the concentration of GA that inhibits 50% of the tracer (15 nM) binding (IC50 value).

T1 sequence (Q6L545 whole entry): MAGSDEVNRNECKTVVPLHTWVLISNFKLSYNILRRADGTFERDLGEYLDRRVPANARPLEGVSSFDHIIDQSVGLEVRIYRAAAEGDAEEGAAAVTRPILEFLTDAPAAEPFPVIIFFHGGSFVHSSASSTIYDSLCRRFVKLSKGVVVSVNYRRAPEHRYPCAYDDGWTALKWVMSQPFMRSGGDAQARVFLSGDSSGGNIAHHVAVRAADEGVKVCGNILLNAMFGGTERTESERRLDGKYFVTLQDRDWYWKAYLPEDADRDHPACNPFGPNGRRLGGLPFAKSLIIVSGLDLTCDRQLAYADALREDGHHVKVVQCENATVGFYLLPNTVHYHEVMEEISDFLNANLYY

With `CC1C[C@]23C[C@H]1CCC2[C@]12CC[C@H](O)[C@](C)(C(=O)O1)[C@H]2[C@@H]3C(=O)O` (stereo partly drawn) [H2-GA4, 16,17-dihydro-GA4] the Kd [1] was 1.4 µM, the “affinity of recombinant GID1 for the GA (in words)” value [2] was “high affinity” and the IC50 ([2]; competition with tritiated GA4 derivative for binding to recombinant GID1, read-out: IC50 (concentration required for 50% inhibition)) was 1 µM. The “Rel % (relative value)” value ([2]; relative competition, GA4 given as 100) was “(20) %”, the “relative value, taking the value for GA4 as 100” value [3] was “(6) %” and the IC50 ([3]; tracer 15 nM, mean of at least two measurements) was 5 µM.
